This is an account of results in US4021556A, “Xanthine oxidase inhibitors” (ICN Pharmaceuticals, Inc., priority 1975, dated 1977).

Data set [1] addresses T1, purified milk xanthine oxidase (Bos taurus, UniProt P80457).
T1 construct: purchased Worthington Biochemical Corporation
The experiment in a line: Xanthine oxidase inhibition, spectrophotometric at 290 nm. Format: biochemical. The note with it: for relative activity (α) compared to allopurinol: ratio to allopurinol (allopurinol = 1); for IC50: xanthine substrate 0.013 micromoles in 3.0 ml, tris HCl buffer pH 7.50, 25° C, unit taken, none in table. The procedure: In this example, the inhibitory activity of the compounds of the invention was determined by recording spectral changes at a constant wavelength of 290 nm, using a Cary Model 15 recording spectrophotometer equipped with a 0-0.1 O.D. slidewire. […] After dissolving in DMSO, the compounds were introduced into the incubation mixture containing 150 micromoles of tris HCl buffer (pH 7.50), 0.6 micromoles EDTA, 0.013 micromoles xanthine, and 20 to 40 micrograms of xanthine oxidase in a final volume of 3.0 milliliters. […] The assay was carried out by mixing all the components in a cuvette at 25° C. The reaction was started by the addition of the enzyme with the aid of a stirrer-adder. Changes in O.D. were measured for several minutes, and the rate (O.D. per minute) was calculated from the spectral change over the first 15 seconds.

In another data set the test system is xanthine oxidase. The note with it: metabolite of allopurinol; cited from earlier work.
For data set [2] the following is noted: dose killing 50% of a group of animals in two weeks, injected into the intraparietal cavity; 20160 min; cited from earlier work.
For data set [3] the following is noted: cited from earlier work.

T1 sequence (P80457 whole entry): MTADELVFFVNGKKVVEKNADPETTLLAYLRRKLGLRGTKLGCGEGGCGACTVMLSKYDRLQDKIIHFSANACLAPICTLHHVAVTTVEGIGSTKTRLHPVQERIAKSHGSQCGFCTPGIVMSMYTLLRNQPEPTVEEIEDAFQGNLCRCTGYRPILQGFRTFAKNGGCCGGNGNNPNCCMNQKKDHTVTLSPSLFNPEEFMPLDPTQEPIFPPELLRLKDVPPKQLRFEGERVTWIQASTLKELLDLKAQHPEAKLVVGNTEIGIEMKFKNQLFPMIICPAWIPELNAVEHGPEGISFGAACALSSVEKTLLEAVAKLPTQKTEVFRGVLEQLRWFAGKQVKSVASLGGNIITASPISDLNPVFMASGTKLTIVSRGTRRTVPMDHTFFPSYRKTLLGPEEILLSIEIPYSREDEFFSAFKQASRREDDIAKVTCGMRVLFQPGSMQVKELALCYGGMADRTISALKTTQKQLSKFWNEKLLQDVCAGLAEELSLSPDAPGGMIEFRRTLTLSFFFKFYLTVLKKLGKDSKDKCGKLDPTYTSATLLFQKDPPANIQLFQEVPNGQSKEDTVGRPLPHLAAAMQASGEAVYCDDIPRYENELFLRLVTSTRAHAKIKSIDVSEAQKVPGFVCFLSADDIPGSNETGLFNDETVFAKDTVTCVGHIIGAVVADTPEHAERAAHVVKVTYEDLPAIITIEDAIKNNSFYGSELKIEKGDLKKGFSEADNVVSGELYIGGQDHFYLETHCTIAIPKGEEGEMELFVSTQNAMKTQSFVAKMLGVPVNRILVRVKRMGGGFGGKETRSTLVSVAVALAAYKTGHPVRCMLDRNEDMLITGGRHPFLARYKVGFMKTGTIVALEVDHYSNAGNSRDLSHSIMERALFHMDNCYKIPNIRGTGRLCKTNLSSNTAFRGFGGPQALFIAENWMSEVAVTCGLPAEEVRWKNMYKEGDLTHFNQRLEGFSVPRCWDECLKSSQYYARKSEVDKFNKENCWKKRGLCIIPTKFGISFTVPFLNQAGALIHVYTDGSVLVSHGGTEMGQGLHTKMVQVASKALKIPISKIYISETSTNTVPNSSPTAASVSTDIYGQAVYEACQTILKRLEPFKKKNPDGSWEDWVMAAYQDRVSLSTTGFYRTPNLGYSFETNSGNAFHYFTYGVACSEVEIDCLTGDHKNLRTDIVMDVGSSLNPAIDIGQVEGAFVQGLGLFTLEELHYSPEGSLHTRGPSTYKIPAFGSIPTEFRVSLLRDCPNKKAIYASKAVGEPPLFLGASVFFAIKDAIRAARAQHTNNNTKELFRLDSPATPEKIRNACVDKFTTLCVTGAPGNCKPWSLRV

Regarding “3-(1'-naphthyl)pyrazolo[1,5,a]pyrimidine-5,7-diol [Compound (9)]”, in data set [1], the “relative activity (α) compared to allopurinol” value (“relative activity (α)” for short) is on record as 20.

“3-(3'-pyridyl)pyrazolo[1,5,a]pyrimidine-5,7-diol [(8)]”: the “relative activity (α)” value in data set [1] came out at 116. Same read-out and setting: next, “3-(m-tolyl)pyrazolo[1,5,a]pyrimidine-5,7-diol [(2)]”: 116; “3-(p-acetamidophenyl)pyrazolo[1,5,a]pyrimidine-5,7-diol [(6)]”: 200; “3-(p-bromophenyl)pyrazolo[1,5,a]pyramidine-5,7-diol [Compound (4)]”: 56. The same measure, in the same setting: next, “3-(p-chlorophenyl)pyrazolo[1,5,a]pyrimidine-5,7-diol [(5)]”: 131; “3-(p-tolyl)pyrazolo[1,5,a]pyrimidine-5,7-diol [(3)]”: 151; “3-phenyl pyrazolo[1,5,a]pyrimidine-5,7-diol [Compound (1)]”: 52. Turning to “3-piperonylpyrazolo[1,5,a]pyrimidine-5,7-diol [(7)]”, the “relative activity (α)” value in data set [1] is recorded as 172. With `Oc1nc(O)c2cn[nH]c2n1` [4,6-dihydroxy pyrazolo[3,4-d]pyrimidine], the “inhibitor effectiveness compared with allopurinol” value in the data set on xanthine oxidase is on record as “not as effective an inhibitor as is allopurinol”.

Take `Oc1ncnc2[nH]ncc12` [Allopurinol, allopurinol]: the LD50 result in data set [2] is “about 150 milligrams per kilogram of body weight”. In addition, in data set [3], the metabolism in vivo entry is “gradually metabolized in vivo to 4,6-dihydroxy pyrazolo[3,4-d]pyrimidine”.

As for `Cc1cccc(-c2cnn3c(O)ccnc23)c1` [Compound (10), 3-(m-tolyl)pyrazolo[1,5a]pyrimidin-7-ol], in data set [1], the “relative activity (α)” value is listed as 50 and the IC50 stood at 100 nM. The like results for `Oc1ccnc2c(-c3ccccc3)cnn12` [Compound (11), 3-phenylpyrazolo[1,5a]pyrimidine-7-ol] were, in that order, 33 and 150 nM.
